# Measurements: patent US11884932B2, “In vitro production of medial ganglionic eminence precursor cells” (The Regents of the University of California, priority 2013, dated 2024)
# B1: DKK1: Dickkopf homolog 1, recombinant protein WNT inhibitor (protein, UniProt O94907 32-266, looked up)
# Dickkopf-related protein 1: TLNSVLNSNAIKNLPPPLGGAAGHPGSAVSAAPGILYPGGNKYQTIDNYQPYPCAEDEECGTDEYCASPTRGGDAGVQICLACRKRRKRCMRHAMCCPGNYCKNGICVSSDQNHFRGEIEETITESFGNDHSTLDGYSRRTTLSSKMYHTKGQEGSVCLRSSDCASGLCCARHFWSKICKPVLKEGQVCTKHRRKGSHGLEIFQRCYCGEGLSCRIQKDHHQASNSSRLHTCQRH
# Legend:
# [1] = system: spontaneous PSCs recorded from hESC-derived neurons post-injection; assay: Whole-cell recording of spontaneous PSCs of transplanted hESC-derived neurons in mouse brain slices; assay type: cell-based, human; conditions: mouse brain slices 7 MPI
# Protocol: (§1) For cultured neurons, the bath was constantly perfused with fresh recording medium containing (in mM): 145 NaCl, 3 KCl, 3 CaCl2, 2 MgCl2, 10 HEPES, 8 glucose. Transverse slices (300 μm) were cut on a […] (Leica VT1200S) and maintained in an incubation chamber with aCST containing (in mM): 110 Choline Cl, 2.5 KCl, 0.5 CaCl2, 7 MgCl2, 1.3 NaH2PO4, 25 NaHCO3, 10 glucose. Slice recording medium contained (in mM): 125 NaCl, 2.5 KCl, 2 CaCl2, 1.3 MgCl2, 1.3 NaH2PO4, 25 NaHCO3, 10 glucose. Recordings were made with an Axon 700B patch-clamp amplifier and 1320A interface (Axon Instruments). Signals were filtered at 2 kHz using amplifier circuitry, sampled at 10 kHz, and analyzed using Clampex 10.2 (Axon Instruments).
# To examine whether hESC-derived MGE-like cells could develop into functional interneurons that synaptically integrate in vivo, we performed whole-cell recordings of RFP+ human cells in mouse brain slices seven MPI. […]
# FIG. 7. hESC-derived MGE-like Interneuron Precursor Cell Maturation and Functional Integration in the Mouse Brain. • (A) Day 35 ML cultures FACS-sorted for NKX2.1-GFP and PSA-NCAM, and injected into newborn mouse cortex. […] Scale Bar: 50 μm. • (D-E) Quantification of histology at 2 (black), 4 (orange), and 7 (blue) MPI, and of SST, CALB, and CALR (E). […] Inset: RFP fluorescence of filled neuron 7 MPI. […]
# GABAA receptor = assay: Whole-cell patch recording of post-synaptic currents in cultured hESC-derived neurons and co-cultured human fetal cortical neurons; assay type: cell-based
# Description: The patch electrodes were made from borosilicate glass capillaries (B-120-69-15, Sutter Instruments) with a resistance in the range of 5-7 MΩ. The pipettes were tip-filled with internal solution containing (in mM): 125 K-gluconate, 15 KCl, 10 HEPES, 4 MgCl2, 4 Na2ATP, 0.3 Na3GTP, 10 Tris-phosphocreatine, 0.2 EGTA.
# as §1
# Photostimulation was delivered by mercury lamp (75 mW) with a GFP excitation bandpass filter and light pulses were generated by Maste-8 (A.M.P.I.) through a high-speed shutter (UNIBLITZ), the power density of the blue light (Boyden, E. S., et al. (2005). Nat Neurosci 8, 1263-1268) (Nagel, G., et al. (2003). Proc Natl Acad Sci USA 100, 13940-13945) was 8-12 mW·mm−2, measured with a power meter (Coherent Instruments).
# The percentage of neurons receiving sPSCs increased from 33.3% at eight WPD (n=12) to 82.1% at 12 WPD (n=28, FIG. 6C). To confirm that GABAergic neurons were able to send outputs to neighboring neurons, we transfected half of the neurons with Synapsin promoter—Channelrhodopsin2-EYFP (ChR2-EYFP) by lentiviral infection. […] The reversal potential of light-evoked PSCs was −32.7 mV (FIGS. 6F and 6G), close to the expected Cl-reversal potential under our recording conditions [−37.3 mV=−53.4 mV (by Nernst equation)±16.1 mV (junction potential)]. […]
# hESC-derived cultures [2] = assay: Cells expressing telencephalic FOXG1 in hESC-derived cultures; assay type: cell-based, human
# Protocol: Cultured cells were fixed in 4% paraformaldehyde for 10-20 min. Mouse brains were fixed overnight-4° C. after trans-cardial perfusion and sectioned (50 μm) by vibratome or sliding microtome. EBs and human tissue were sectioned (25 μm) by cryostat. Cells and sections were stained: 5-10 min antigen retrieval with boiling 0.01M citrate buffer pH=6, 1 hr block with 5% serum and 0.1% triton X100 in PBS, overnight-4° C. primary antibody in block buffer (except triton-free buffer used for GABA antibody), wash 3× in PBS+tritonX100, 2 hr secondary antibody (Invitrogen), wash 4× in PBS+tritoriX100.
# (§2) SHH pathway activation was required for NKX2,1-GFP+ cell derivation. In this study, we used 1-2 μM of purmorphamine or 500 ng/mL of SHH. […] Addition of an FGF inhibitor (PD173074) from the onset of differentiation (d0-25) caused a decrease in cells expressing FOXG1 (55%), but addition of the same inhibitor on day 14 (d14-25) had no effect on FOXG1 levels (not shown). Therefore, similar to fetal forebrain development, early inhibition of WNT and activation of FGF signaling pathways, along with SHH activation, play roles in patterning the ventral-telencephalic-like identity of hESC-derived cultures.
# hESC-derived cultures [3] = assay: Viability of differentiating hESC cultures; assay type: cell-based, human; conditions: 2-6 μM purmorphamine
# Protocol: as §2
# Cost-effective cell production methods will be preferred over lengthy protocols and expensive recombinant protein-based reagents, and cryopreservation of cells will facilitate future work. Here, we used 3 small molecules (Y27632, SB431542, and purmorphamine) and 2 recombinant proteins (BMPRIA-Fc and DKK1). Several small molecule substitutes now exist for inhibition of BMP and WNT pathways. […] In addition, ˜25% of hESC-derived MGE-like cells were viable after cryopreservation and thawing, and thawed cells matured into neurons with functional properties as confirmed by electrophysiology.
# HES-3 NKX2.1GFP/w hESCs = assay: NKX2.1-GFP+ differentiation efficiency of hESCs by FACS / flow cytometry; assay type: cell-based, human; conditions: for NKX2.1-GFP+ MGE precursor-like cell efficiency: KSR/B27 media
# Protocol: HES-3 hESCs were maintained on irradiated mouse embryonic fibroblasts (Millipore) in knockout DMEM with 20% knockout serum replacement, 1% nonessential amino acids (NEAA), 1% pen-strep-glutamine, 0.0008% 2-mercaptoethanol, and 10 ng/mL FGF-basic (Invitrogen), Differentiation was initiated by CollagenaseIV/Dispase (1 mg/mL each; Invitrogen) preferential selection for hESC colonies. Colonies were trypsinized to single cells, and, as described (Eiraku, M., et al. (2008). Cell Stem Cell 3, 519-532), ˜10,000 cells/well were plated into low-attachment round-bottom 96-well plates (Corning or NOF) to form one sEB/well in optimized B27+5F; differentiation medium #1, consisting of Neurobasal-A, 2% B27-vitamin A (Invitrogen), and the same supplements in hESC media but without FGF. Also, Y27632 (10 μM), SB3431542 (10 μM), Purmorphamine (1-2 μM) (Stemgent), BMPRIA-Fc (1.5 μg/mL), and DIKK1 (1 μg/mL) (Invitrogen) were added.
# On ˜d7, Y27632 was removed, and sEBs were plated adherent en-bloc onto matrigel (BD Biosciences) coated plates in medium #1. On ˜d14, factors were removed from medium #1 except for Purmorphamine. On ˜d25, aEBs were trypsinized and replated as dissociated monolayer onto matrigel or polyornithine/laminin coated plates. DAPT (10 μM) (Tocris) was added from ˜d27-d30. After FACS sorting on day ˜35, GFP+ cells could be replated (10-25,000 cells/cm2) onto cortical glial cells in medium #1. Glial cells were prepared from newborn mouse cortex, passaged at least 3× with serum to remove mouse neurons, and pre-treated at confluency with Ara-C (5 μM) (Sigma). Every 3-4 days, half of media was replaced with differentiation medium #2: Neurobasal-A, 2% B27+vitamin A, (Invitrogen) and same supplements in medium #1, without factors, except NEAA and Purmorphamine were removed, and BDNF (25 ng/mL) was added (R&D Systems). Media was replaced every 3-4 days.
# FACS analysis and sorting was performed on FACS Aria II (BD Biosciences). Cells were gated for live cell DAN exclusion, small scatter size, single cells, NKX2.1-GFP signal, and PSA-NCAM-APC or -PE (Miltenyi Biotech) signal intensity. GFP-negative cells and isotype antibody (Santa Cruz) controls were used. Data was analyzed with Flowjo (Treestar) software. For live cell imaging, differentiation was similar to above, but 5,000 cells/well were plated into Aggrewell-800 plates (Stem Cell Technologies), and sEBs were plated en-bloc on day 4-7. Imaging was performed by time-lapse confocal microscopy with temperature (37° C.) and gas (5% O2, 5% CO2, 90% N2) controls (Leica SP5).
# FIG. 24, Bottom Panel: Flow cytometry was used to determine the efficiency of generation of NKX2.1GFP+ MGE precursor cells using the small molecule inhibitors. The efficiency of generation of NKX2.1GFP+ MGE precursor cells was determined as what percent of cells of the cells analyzed were NKX2.1GFP+ MGE precursor cells.
molecule,measurement,setting,value
"C[N+]1(C)CCc2cc3c(cc2[C@H]1[C@@H]1OC(=O)c2c1ccc1c2OCO1)OCO3.[I-] [BMI, bicuculline methiodide]",block of spontaneous PSCs with slow decay-time,[1],blocked
same,block of spontaneous post-synaptic currents (sPSC),"GABAA receptor; BMI 20 μM, hESC-derived neurons co-cultured with mouse glial cells, eight weeks post-differentiation",fully blocked
same,block of light-evoked PSCs,"GABAA receptor; ChR2-EYFP hESC-derived neurons, blue light, neighboring neurons",reversible blockade
same,block of light-evoked GABAergic-specific PSCs in primary human fetal cortical neurons,GABAA receptor; co-culture seven weeks with ChR2 hESC-derived neurons,completely blocked
"N#Cc1cc2nc(O)c(O)nc2cc1[N+](=O)[O-] [CNQX, 6-Cyano-2,3-dihydroxy-7-nitro-quinoxaline]",block of remaining spontaneous PSCs with fast decay-time,[1]; applied after BMI,blocked
CCN(CC)CCCCNc1ncc2cc(-c3cc(OC)cc(OC)c3)c(NC(=O)NC(C)(C)C)nc2n1 [PD173074],cells expressing FOXG1,hESC-derived cultures [2]; FGF inhibitor added from onset of differentiation (d0-25),55%
same,effect on FOXG1 levels,hESC-derived cultures [2]; FGF inhibitor added on day 14 (d14-25),no effect
c1ccc2c(Oc3nc(Nc4ccc(N5CCOCC5)cc4)c4ncn(C5CCCCC5)c4n3)cccc2c1 [purmorphamine],viability of later-stage monolayer cultures,hESC-derived cultures [3],decreased
same,GFP+ differentiation efficiency in EB cultures,HES-3 NKX2.1GFP/w hESCs; 2-6 μM purmorphamine versus 1-2 μM used,slightly increased
same,NKX2.1-GFP+ MGE precursor-like cell efficiency,"HES-3 NKX2.1GFP/w hESCs; 25-day hybrid method, purmorphamine day 10-25, SB431542, BMPRIA-Fc and DKK1 throughout, FACS",12%
same,NKX2.1-GFP+ MGE precursor cells,"HES-3 NKX2.1GFP/w hESCs; B27 media throughout 25-day protocol, early addition of five factors (Y27632, SB431542, BMPRIA-Fc, DKK1, purmorphamine)",70%
same,NKX2.1-GFP+ differentiation efficiency,"HES-3 NKX2.1GFP/w hESCs; B27 media, early purmorphamine, inhibitors removed after two weeks (d14), protocol extended to day 35, FACS",up to 90%
same,NKX2.1-GFP+ MGE precursor-like cell efficiency,HES-3 NKX2.1GFP/w hESCs; as hybrid method but purmorphamine from day 0-25,1.9%
B1,GFP+ cell differentiation efficiency,HES-3 NKX2.1GFP/w hESCs; DKK1 WNT inhibitor absent versus present,similar
same,number of cells expressing telencephalic FOXG1,hESC-derived cultures [2]; DKK1 WNT inhibitor absent,45%
same,number of cells expressing telencephalic FOXG1,hESC-derived cultures [2]; with DKK1 WNT inhibitor,70%
